Experimental data reported in US20240199647A1, “ANTI-VIRAL COMPOUNDS” (Aligos Therapeutics, Inc., priority 2022, published 2024).
Like-named read-outs stand apart in the source and are kept apart here.

Columns and labels:
[1] = target: SARS-Cov-2 3CLpro (Severe acute respiratory syndrome coronavirus 2, UniProt P0DTD1); assay: biochemical; details: Table A, class symbols, read-out: SARS-Cov-2 (IC50)
[2] = system: human beta-coronavirus OC43; assay: OC43 Coronavirus Assay in HeLa cells (antiviral, cytopathic effect, cell-titer-glo); type: cell-based; details: Betacoronavirus 1, OC43, HeLa, Table B; OC43 coronavirus in HeLa cells, class symbols; read-out: EC50
[3] = system: SARS-CoV-2 B.1.1.7 lineage; assay: microbe, parasite or virus in culture; type: cell-based; details: Severe acute respiratory syndrome coronavirus 2, Table C, SARS-CoV-2 B.1.1.7 in A549-dual_ACE2_TMPRSS2 cells, read-out: A549-dual_ACE2_TMPRSS2 (EC50)
[4] = in vitro; details: human
[5] = Cytotoxicity in HeLa cells without addition of OC43 virus (in parallel); details: human, HeLa cells, without OC43 virus

SMILES	IC50 [1]	EC50 [2]	EC50 ([3]; cells given as a bound)	CC50 [4]	CC50 at 6 days [5]	EC50 ([3]; class symbols)
CC(C)C[C@@H](C(=O)N1C[C@@]2(C[C@H]1C#N)N=C(C1CC1)NC2=O)N(C)C(=O)[C@H](C)NC(=O)C(F)(F)F [Compound 16]	0.02 to 0.2 µM	0.1 to 1 µM	> 1 µM	> 1 µM	> 10 µM	–
CC1=N[C@@]2(C[C@@H](C#N)N(C(=O)[C@H](CC(C)C)N(C)C(=O)[C@H](C)NC(=O)C(F)(F)F)C2)C(=O)N1 [Compound 18]	0.02 to 0.2 µM	1 to 10 µM	> 1 µM	> 1 µM	> 10 µM	–
CC(C)C[C@@H](C(=O)N1C[C@@]2(C[C@H]1C#N)CC1(CCCC1)NC2=O)N(C)C(=O)[C@H](C)NC(=O)C(F)(F)F [Compound 19]	0.02 to 0.2 µM	0.1 to 1 µM	–	> 1 µM	> 10 µM	0.1 to 1 µM
CC(C)C[C@@H](C(=O)N1C[C@]2(CCC3(CC3)NC2=O)C[C@H]1C#N)N(C)C(=O)[C@H](C)NC(=O)C(F)(F)F [Compound 20]	0.02 to 0.2 µM	1 to 10 µM	–	> 1 µM	> 10 µM	0.1 to 1 µM
CC(C)C[C@@H](C(=O)N1C[C@]2(CC(C)NC2=O)C[C@H]1C#N)N(C)C(=O)[C@H](C)NC(=O)C(F)(F)F (stereo partly drawn) [Compound 21, (2S)—N-((2S)-1-((3S,5S)-3-cyano-8-methyl-6-oxo-2,7-diazaspiro[4.4]nonan-2-yl)-4-methyl-1-oxopentan-2-yl)-N-methyl-2-(2,2,2-trifluoroacetamido)propanamide]	< 0.02 µM	0.1 to 1 µM	–	> 1 µM	> 10 µM	0.1 to 1 µM
CC(C)C[C@@H](C(=O)N1C[C@@]2(C[C@H]1C#N)CC(C)(C)NC2=O)N(C)C(=O)[C@H](C)NC(=O)C(F)(F)F [Compound 22]	0.02 to 0.2 µM	1 to 10 µM	> 1 µM	> 1 µM	> 10 µM	–
CCC1C[C@@]2(C[C@@H](C#N)N(C(=O)[C@H](CC(C)C)N(C)C(=O)[C@H](C)NC(=O)C(F)(F)F)C2)C(=O)N1 (stereo partly drawn) [Compound 23]	< 0.02 µM	0.1 to 1 µM	–	> 1 µM	> 10 µM	0.1 to 1 µM
CC(C)C[C@@H](C(=O)N1C[C@]2(CC(c3ccccc3)NC2=O)C[C@H]1C#N)N(C)C(=O)[C@H](C)NC(=O)C(F)(F)F (stereo partly drawn) [Compound 24]	< 0.02 µM	1 to 10 µM	–	> 1 µM	> 10 µM	0.1 to 1 µM
CC(C)C[C@@H](C(=O)N1C[C@]2(C[C@H]1C#N)C(=O)Nc1cc(-c3ccccc3)nn12)N(C)C(=O)[C@H](C)NC(=O)C(F)(F)F [Compound 25, (S)—N—((S)-1-((3R,5'S)-5′-cyano-2-oxo-6-phenyl-1,2-dihydrospiro[imidazo[1,2-b]pyrazole-3,3′-pyrrolidin]-1′-yl)-4-methyl-1-oxopentan-2-yl)-N-methyl-2-(2,2,2-trifluoroacetamido)propanamide]	0.02 to 0.2 µM	0.1 to 1 µM	–	> 1 µM	> 10 µM	0.1 to 1 µM
CC(C)C[C@@H](C(=O)N1C[C@]2(C[C@H]1C#N)C(=O)Nc1cc(Br)nn12)N(C)C(=O)[C@H](C)NC(=O)C(F)(F)F [Compound 26, (2S)—N-[(2S)-1-[(3R,5'S)-6-bromo-5′-cyano-2-oxo-1H-spiro[pyrazolo[1,5-a]imidazole-3,3′-pyrrolidin]-1′-yl]-4-methyl-1-oxopentan-2-yl]-N-methyl-2-(2,2,2-trifluoroacetamido)propanamide]	0.02 to 0.2 µM	0.1 to 1 µM	> 1 µM	> 1 µM	> 10 µM	–
CC(C)C[C@@H](C(=O)N1C[C@@]2(C[C@H]1C#N)N=C(C(C)(C)C)NC2=O)N(C)C(=O)[C@H](C)NC(=O)C(F)(F)F [Compound 47]	0.02 to 0.2 µM	1 to 10 µM	–	> 1 µM	> 10 µM	0.1 to 1 µM
CC(C)C[C@@H](C(=O)N1C[C@@]2(C[C@H]1C#N)Oc1cc(F)c(F)cc1NC2=O)N(C)C(=O)[C@H](C)NC(=O)C(F)(F)F [Compound 48]	< 0.02 µM	0.1 to 1 µM	–	> 1 µM	> 10 µM	0.1 to 1 µM
CC(C)C[C@@H](C(=O)N1C[C@@]2(C[C@H]1C#N)Oc1c(F)cc(F)cc1NC2=O)N(C)C(=O)[C@H](C)NC(=O)C(F)(F)F [Compound 49]	< 0.02 µM	0.1 to 1 µM	–	> 1 µM	> 10 µM	0.1 to 1 µM
CN(C(=O)[C@H](CC1CC1)NC(=O)C(F)(F)F)[C@@H](CC1CC1)C(=O)N1C[C@@]2(C[C@H]1C#N)Oc1cc(F)ccc1NC2=O [Compound 50]	< 0.02 µM	< 0.1 µM	–	> 1 µM	> 10 µM	< 0.1 µM
CC(C)C[C@@H](C(=O)N1C[C@@]2(CC1C#N)Oc1cc(F)cc(F)c1NC2=O)N(C)C(=O)[C@H](C)NC(=O)C(F)(F)F (stereo partly drawn) [Compound 51]	< 0.02 µM	0.1 to 1 µM	–	> 1 µM	> 10 µM	0.1 to 1 µM
CN(C(=O)[C@H](CC1CC1)NC(=O)C(F)(F)F)[C@@H](CC1CC1)C(=O)N1C[C@@]2(C[C@H]1C#N)Oc1ccc(F)c(F)c1NC2=O [Compound 52]	< 0.02 µM	< 0.1 µM	–	> 1 µM	> 10 µM	< 0.1 µM
CN(C(=O)[C@@H](NC(=O)C(F)(F)F)C(C)(C)C)[C@@H](CC1CC1)C(=O)N1C[C@@]2(C[C@H]1C#N)Oc1cc(F)cc(F)c1NC2=O [Compound 53]	< 0.02 µM	0.1 to 1 µM	–	> 1 µM	> 10 µM	0.1 to 1 µM
CN(C(=O)[C@H](CC1CC1)NC(=O)C(F)(F)F)[C@@H](CC(C)(C)F)C(=O)N1C[C@@]2(CC1C#N)Oc1cc(F)cc(F)c1NC2=O (stereo partly drawn) [Compound 54]	< 0.02 µM	< 0.1 µM	–	> 1 µM	> 10 µM	0.1 to 1 µM
CN(C(=O)[C@H](CC1CC1)NC(=O)C(F)(F)F)[C@@H](CC1CC1)C(=O)N1C[C@@]2(C[C@H]1C#N)Oc1cc(F)cc(F)c1NC2=O [Compound 55]	< 0.02 µM	< 0.1 µM	–	> 1 µM	> 10 µM	< 0.1 µM
CN(C(=O)[C@H](CC1CC1)NC(=O)C(F)(F)F)[C@@H](CC1CC1)C(=O)N1C[C@@]2(C[C@H]1C#N)Oc1cccc(F)c1NC2=O [Compound 56]	< 0.02 µM	< 0.1 µM	–	> 1 µM	> 10 µM	< 0.1 µM
CN(C(=O)[C@H](CC1CC1)NC(=O)C(F)(F)F)[C@@H](CC1CC1)C(=O)N1C[C@@]2(C[C@H]1C#N)Oc1c(F)ccc(F)c1NC2=O [Compound 57]	< 0.02 µM	< 0.1 µM	–	> 1 µM	> 10 µM	< 0.1 µM
CC(C)C[C@@H](C(=O)N1C[C@@]2(C[C@H]1C#N)Oc1cc(Cl)cc(F)c1NC2=O)N(C)C(=O)[C@H](C)NC(=O)C(F)(F)F [Compound 58]	< 0.02 µM	0.1 to 1 µM	–	> 1 µM	> 10 µM	0.1 to 1 µM
CN(C(=O)[C@H](CC1CC1)NC(=O)C(F)(F)F)[C@@H](CC1CC1)C(=O)N1C[C@@]2(C[C@H]1C#N)Oc1cc(Cl)cc(F)c1NC2=O [Compound 59]	< 0.02 µM	< 0.1 µM	–	> 1 µM	> 10 µM	< 0.1 µM
CN(C(=O)[C@H](CC1CC1)NC(=O)C(F)(F)F)[C@@H](CC1CC1)C(=O)N1C[C@@]2(C[C@H]1C#N)CC1(CC1)NC2=O [Compound 60]	< 0.02 µM	< 0.1 µM	–	> 1 µM	> 10 µM	< 0.1 µM
C[C@H](NC(=O)C(F)(F)F)C(=O)N(C)[C@@H](CC(C)(C)F)C(=O)N1C[C@@]2(C[C@H]1C#N)Oc1cc(F)cc(F)c1NC2=O [Compound 61]	< 0.02 µM	1 to 10 µM	–	> 1 µM	> 10 µM	0.1 to 1 µM
C[C@H](NC(=O)C(F)(F)F)C(=O)N(C)[C@@H](CC(C)(C)C)C(=O)N1C[C@@]2(C[C@H]1C#N)Oc1cc(F)cc(F)c1NC2=O [Compound 62]	< 0.02 µM	0.1 to 1 µM	–	> 1 µM	> 10 µM	0.1 to 1 µM
CC(C)C[C@H](NC(=O)C(F)(F)F)C(=O)N(C)[C@@H](CC(C)C)C(=O)N1C[C@@]2(C[C@H]1C#N)Oc1cc(F)cc(F)c1NC2=O [Compound 63]	< 0.02 µM	0.1 to 1 µM	–	> 1 µM	> 10 µM	0.1 to 1 µM
CC(C)C[C@@H](C(=O)N1C[C@@]2(C[C@H]1C#N)Oc1cc(F)cc(F)c1NC2=O)N(C)C(=O)[C@H](CC(C)(C)F)NC(=O)C(F)(F)F [Compound 64]	< 0.02 µM	< 0.1 µM	–	> 1 µM	> 10 µM	0.1 to 1 µM
CC(C)C[C@@H](C(=O)N1C[C@@]2(C[C@H]1C#N)Oc1cccnc1NC2=O)N(C)C(=O)[C@H](C)NC(=O)C(F)(F)F [Compound 65]	< 0.02 µM	0.1 to 1 µM	–	> 1 µM	> 10 µM	0.1 to 1 µM
CN(C(=O)[C@H](CC1CC1)NC(=O)C(F)(F)F)[C@@H](CC1CC1)C(=O)N1C[C@@]2(C[C@H]1C#N)Oc1cccnc1NC2=O [Compound 66]	< 0.02 µM	< 0.1 µM	–	> 1 µM	> 10 µM	< 0.1 µM
